The record followed here is PubChem BioAssay AID489024 (Sanford-Burnham Center for Chemical Genomics, 2010).

The source made the active and inactive calls.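 The calls were made as follows: active = compounds whose mean EC50, the dose giving half the maximal reporter activation, is at or below a set limit; inactive = the rest.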

The assay has as its target CHO-CHOP luciferase reporter, UPR activation, luminescence. In words: CHOP reporter induction, apoptotic UPR branch – CHO-CHOP cells, luciferase luminescence, confirmation (AID 489024).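 Also: compounds added alone to reporter cells with no tunicamycin stress co-treatment.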
For the compound `CC1=C(CC/C(C)=N/NC(N)=S)C(C)(C)CCC1`, the EC50 (in general, the concentration at which the effect is half-maximal) was 19.8 µM.
The result for `CC(C)(C)C(=O)N1CCN(c2ccc(NC(=O)c3ccc([N+](=O)[O-])o3)cc2)CC1` reads 0.75 µM; that for `O=C(c1ccc(Br)cc1)C(CN1CCOCC1)c1ccccc1` (configuration not stated), 8.78 µM.
For `CCn1c(-c2ccccc2)c(C(=O)CCl)c2ccccc21`, the concentration for a half-maximal effect (EC50) is 8.47 µM.
The result for `O=C(CSc1nc2ccc(Nc3nc(N4CCOCC4)nc(N4CCOCC4)n3)cc2s1)Nc1ccccc1F` reads 14.7 µM; that for `O=C1CC(c2cccc(Cl)c2)CC(O)=C1C=Nc1ccccc1` (configuration not stated), 16.2 µM; that for `CCCCOC(=O)/C=C\C(=O)NC(N)=O`, 13.8 µM.
Turning to `CCc1cccc2c(C(=O)CCl)c[nH]c12`, the half-maximal effective concentration (EC50) was 15.7 µM.
With `O=S(=O)(CCSc1nc2ccccc2s1)c1nc2ccccc2s1`, the EC50 was 11.6 µM.
The result for `CC(=O)c1cccc(N=Cc2c(O)c3ccccc3oc2=O)c1` reads 9.66 µM; that for `Cc1ccc(NC(=O)c2ccc([N+](=O)[O-])o2)cc1S(=O)(=O)N1CCOCC1`, 11.8 µM.
The result for `Cc1[nH]c2c(C)cccc2c1CCNC(=O)c1ccc2c(c1[N+](=O)[O-])C(=O)c1ccccc1C2=O` reads 6.46 µM; that for `Oc1c(CN2CCc3ccccc3C2)cc(Cl)c2cccnc12`, 12 µM.
With `COc1cc([N+](=O)[O-])cc(/C=N/NC(=O)c2ccc(NC(=O)c3ccc(C)cc3)cc2)c1O`, the EC50 is 12.3 µM.
Turning to `Oc1ccc(-c2nc(-c3ccc(O)c(O)c3)cs2)cc1`, the EC50 is 9 µM.
Turning to `Cc1cccc(OCCN2CSC(=S)N(C)C2)c1`, the EC50 is > 80 µM (inactive).
The result for `CC1(C)CCSC(/C=C/c2ccccc2)=N1` reads > 80 µM (inactive).
The result for `COc1ccc(OC)c(/C=C/C(=O)N2C(=O)c3cccc(N)c3C2=O)c1` reads “inactive”; that for `COc1ccc(CCn2c(C)cc(C(=O)CCl)c2C)cc1OC`, > 80 µM (inactive); that for `CCc1cc2c(=O)[nH]c(-c3ccccn3)nc2s1`, 2.61 µM.
The entry for `O=C(Oc1c(CN2CCOCC2)cc(Cl)c2cccnc12)c1ccc(F)cc1` is “inactive”; for `COc1cccc(N=Nc2ccc3cccnc3c2O)c1` it is 10.2 µM.
`COc1ccc2c(C(=O)CCl)c[nH]c2c1`: the EC50 was 6.36 µM.
The figure for `COc1ccc(N2C(=O)/C(=C/C=C/c3ccccc3[N+](=O)[O-])C(=O)NC2=S)cc1` is > 80 µM (inactive); for `COC(=O)c1ccc(-n2c(C)cc(C(=O)CCl)c2C)cc1` it is 4.62 µM.
The figure for `O=C(/C=C/Sc1ccccc1)c1ccc(Cl)cc1` is 10.6 µM; for `O=c1c2c3c(sc2ncn1/N=C/c1ccc([N+](=O)[O-])o1)CCCC3` it is 7.01 µM.
Take `O=C(C#Cc1ccccc1)c1cccc([N+](=O)[O-])c1`: the EC50 is 7.41 µM.
The figure for `C=CCN=c1scc(C)n1/N=C/c1ccc(O)c(O)c1` is 3.01 µM.
On to `N#C/C(=C\c1ccc(OCc2ccccc2)cc1)C(=O)Nc1nc2c(s1)CCN(Cc1ccccc1)C2`, for which the EC50 result is “inactive”.
For `O=CC1=C(c2ccccc2)Oc2ccccc2O1`, the EC50 is 12.2 µM.
The entry for `Cn1nc(C(F)(F)F)c(/C=N/OC(=O)c2ccccc2)c1SCc1ccccc1Cl` is “inactive”.
As to `O=C(Nc1ccc(NC(=O)c2sc3ccccc3c2Cl)cc1Cl)c1ccco1`, the EC50 entry was “inactive”.
The result for `Oc1ccc(/C=N/Nc2cc(N3CCOCC3)nc(N3CCOCC3)n2)cc1O` reads > 80 µM (inactive); that for `Clc1ccc(-c2ccc(/C=N/Nc3nncc(-c4ccccc4)n3)o2)cc1`, 15.6 µM.
On to `COc1cc(CN2CCN(c3cc(C)ccc3C)CC2)ccc1O`, for which the 50% effective concentration (EC50) is 11.7 µM.
The result for `Oc1c(CN2CCN(c3ccc(F)cc3)CC2)cc(Cl)c2cccnc12` reads 14 µM; that for `O=C(CCC(=O)Nc1ccc(Cl)cc1Cl)N/N=C/c1ccc([N+](=O)[O-])o1`, 12.9 µM; that for `C/C(=N\Nc1ncnc2sc(C)c(C)c12)c1ccccn1`, 5.59 µM.
The figure for `COc1ccc(Cn2c(SCc3ccc(C)cc3)nc3cc(OC)c(OC)cc3c2=N)cc1Cl` is 14 µM.
Consider `COc1ccccc1N1CCN(/N=C/c2ccc(O)c(O)c2)CC1`, for which the EC50 was 2.36 µM.
The figure for `CCOC(=O)/C(=C\c1ccc(Cl)cc1)c1nc2sc(C)c(C)c2c(=O)[nH]1` is > 80 µM (inactive); for `Cc1nc2ccccc2n1-c1nc(-c2ccco2)cc(C(F)(F)F)n1` it is 6.76 µM; for `O=c1[nH]c(-c2ccc(-c3cccc(Cl)c3)o2)nc2ccccc12` it is 12.9 µM.
The figure for `O=C(Nc1ccc(Cc2ccncc2)cc1)c1ccc([N+](=O)[O-])o1` is 1.54 µM; for `CCCCn1c(/C=N/Nc2nc3ccccc3[nH]2)nc2ccccc21` it is 12.3 µM; for `Cc1cccc(-n2c(/C=C/c3ccc([N+](=O)[O-])o3)nc3ccccc3c2=O)c1` it is 11.7 µM.
In the case of `N#CC1=C(N)OC2=C(CC/C2=C\c2ccccc2)C1c1ccccc1` (configuration not stated), the EC50 is 6.51 µM.
With `N=c1c(-c2nc3ccccc3[nH]2)cc(C(=O)c2ccco2)nn1-c1ccccc1`, the EC50 was 15.2 µM.
The result for `O=C1NC(=O)N(Cc2ccccc2)C(=O)/C1=C\C=C\c1ccco1` reads > 80 µM (inactive); that for `CCN(CC)S(=O)(=O)c1ccc(N/N=C(\C)c2ccc3c(c2)OCO3)c([N+](=O)[O-])c1`, “inactive”; that for `Fc1ccc(NC(=S)Nc2nccs2)cc1`, “inactive”.
The figure for `Cc1cc(C(=O)CCl)c(C)n1CCc1ccccc1` is 7.91 µM; for `COc1ccccc1N=c1oc2c(OC)cccc2cc1C(=O)NCc1ccco1` it is > 80 µM (inactive).
The figure for `COc1ccc(-c2oc(NC(=O)CCl)c(C#N)c2-c2ccc(OC)cc2)cc1` is 12.9 µM; for `CC1=NOC(=O)/C1=C\c1ccc(-c2ccc(Cl)cc2Cl)o1` it is 13.5 µM.
In the case of `C=CCN=c1scc(-c2ccco2)n1/N=C/c1ccc(O)c(O)c1O`, the EC50 result is “inactive”.
Consider `CCCCCCCC(=O)Nc1ccc(C(=O)N/N=C/c2cccc([N+](=O)[O-])c2)cc1`, for which the EC50 entry was “inactive”.
The figure for `O=[N+]([O-])c1ccc(C=Nc2ccc(Cl)c([N+](=O)[O-])c2)s1` is > 80 µM (inactive).
The result for `CC1CCCCC1N1CN=C(Nc2nc3ccccc3s2)NC1` (configuration not stated) reads “inactive”; that for `CC(C)(C)C1=CC(=O)C(=O)C(C(C)(C)C)=C1`, 7.59 µM; that for `CCOC(=O)c1cnc(Nc2nc3ccccc3o2)nc1CSC(=S)N1CCCCC1`, 1.3 µM.
Take `Cc1sc(NC(=O)c2cc(-c3ccc(Cl)cc3)nc3ccccc23)c(C(N)=O)c1C`: the EC50 result is “inactive”.
`CN1CSC(=S)N(C)C1`: the EC50 is > 80 µM (inactive).
The result for `S=C(Nc1ccccc1)c1ccccn1` reads 9.11 µM; that for `COc1ccc(N2CCN(Cc3cc(=O)oc4cc(-c5ccccc5)c(O)cc34)CC2)cc1`, > 80 µM (inactive); that for `O=C1C=CC(=O)C(C2=C3C(=O)N(CCc4ccccc4)CC(=O)N3CCC2)=C1`, 9.95 µM.
On to `O=C(CCN1C(=O)/C(=C\c2ccccc2F)SC1=S)N1CCCCC1`, for which the EC50 was > 80 µM (inactive).
`COc1cccc2sc(Nc3nnc(-c4cccs4)o3)nc12`: the EC50 is 6.83 µM.
The result for `CCOC(=O)c1c(-c2ccc(-c3ccccc3)cc2)csc1NC(=O)CNCCN(C)C` reads 7.71 µM; that for `Cc1ccc(Sc2nc(-c3ccccc3)nnc2C(F)(F)F)cc1`, > 80 µM (inactive).
Consider `c1ccc(CSC2=NNC(c3ccccn3)S2)cc1` (configuration not stated), for which the EC50 was 4.29 µM.
The figure for `Cc1ccc(-c2nn3c(C)nnc3s2)cc1NC(=O)c1ccc(-c2ccc(Cl)cc2Cl)o1` is 14 µM; for `O=C(Nc1ccc(Cl)cc1)/C(=C/c1cccc(O)c1)c1nc2ccccc2s1` it is > 80 µM (inactive).
On to `O=[N+]([O-])c1ccccc1S(=O)(=O)Nc1cccc2cccnc12`, for which the EC50 is 7.67 µM.
The result for `O=C(NCCc1ccc(F)cc1)c1coc(=O)c(Br)c1` reads 9.53 µM.
The result for `CC(C)(C)N1CSC(=S)N(Cc2ccccc2)C1` reads 10.2 µM; that for `O=C(Nc1cccc(S(=O)(=O)N2CCCCC2)c1)c1ccc([N+](=O)[O-])o1`, 5.08 µM.
The result for `COc1ccc(/C=N/Nc2cc(C)nc(-n3nc(C)cc3C)n2)c(OC)c1` reads 7.32 µM.
`O=C(C#Cc1cccc([N+](=O)[O-])c1)c1ccccc1`: the concentration giving a half-maximal response (EC50) was 8.96 µM.
The result for `CN1C(=O)/C(=C/c2cccn2-c2ccc3ccccc3c2)C(=O)NC1=S` reads 11.7 µM; that for `O=C(N/N=C/c1ccccn1)c1cc(-c2ccccc2)nc2ccccc12`, 5.91 µM; that for `CN(C)C(=O)CSc1cccc2cccnc12`, 8.15 µM.
The result for `CS(=O)(=O)c1nc(-c2ccc(Br)cc2)cc(-c2ccccc2)c1C#N` reads 5.12 µM; that for `COc1ccc(NC(=O)c2nc(S(=O)(=O)Cc3cccc(C)c3)ncc2Cl)c(OC)c1`, 11.5 µM.
Turning to `C=C(C(=O)c1ccccc1)C(C(=C)C(=O)c1ccccc1)c1ccc(OC)cc1`, the EC50 was 15.3 µM.
Turning to `Oc1ccc2ccccc2c1N=Nc1ccccn1`, the EC50 was 8.55 µM.
Consider `COc1cc(OC)cc(C(=O)NC(=S)Nc2cc3oc4ccccc4c3cc2OC)c1`, for which the EC50 result is “inactive”.
The entry for `CC(=O)/C(=C/c1ccccc1)C(=O)Nc1ccccc1C` is “inactive”; for `O=C(N/N=C/c1ccccn1)c1ccc(Cl)c(Cl)c1` it is 2.93 µM.
The result for `Cc1ccc(NC(=O)c2ccc(N/N=C/c3cccc(O)c3)c([N+](=O)[O-])c2)cc1` reads 8.03 µM; that for `CCc1cc(C(=O)c2ccc(C)cc2)c(NC(=O)CCl)s1`, 13.5 µM; that for `Cc1noc2ncnc(Sc3ccc(Br)cc3)c12`, 9.31 µM.
The result for `Cc1nn(-c2ccccc2)c(C)c1/C=N/NC(=O)CSc1nc2ccccc2c(=O)n1-c1ccc(Br)cc1` reads 9.85 µM; that for `Cc1ccc(C)c2sc(N3CCN(C(=O)c4ccc([N+](=O)[O-])o4)CC3)nc12`, 18.9 µM; that for `CC(C)c1ccc(/C=C(\c2nc3ccccc3[nH]2)S(=O)(=O)c2ccccc2)cc1`, 9.49 µM.
Regarding `COc1ccc(-c2cc(-c3ccccc3)c(C#N)c(S(C)(=O)=O)n2)cc1`, the EC50 is 5.18 µM.
